# Data reported in patent US20250032524A1, “BROAD SPECTRUM AMINOGLYCOSIDES AND USES THEREOF” (REVAGENIX, INC., priority 2022, published 2025).
# Columns and labels:
# [1] = test system: A. baumannii strain CDC-313; assay: Neutropenic mouse lung infection model; assay type: in vivo; details: neutropenic CD-1 male mice, FIG. 15
# A. baumannii = assay: MIC broth microdilution (CLSI); assay type: cell-based
# Experimental: (§1) Minimum inhibitory concentrations for representative example compounds herein were determined by a broth microdilution method in accordance with the Clinical and Laboratory Standards Institute (CLSI) guidelines. In brief, organism suspensions were adjusted to a 0.5 McFarland standard to yield a final inoculum between 3×10^5 and 7×10^5 colony-forming units (CFU)/mL. The inoculum was prepared by suspension of a colony from an agar plate that was prepared the previous day. Compound dilutions and inoculum were prepared in sterile, cation adjusted Mueller-Hinton Broth (Beckton Dickinson).
# (§2) Bacteria were suspended in sterile saline and added to each assay plate to obtain a final concentration of 5×10^5 CFU/mL. An inoculum volume of 100 μL was added to wells containing 100 μL of broth with 2-fold serial dilutions of the test compound. All inoculated microdilution trays were incubated in ambient air at 35° C. for 18-24 hours. Following incubation, the lowest concentration of the compound that prevented visible growth (OD 600 nm<0.05) is recorded was the MIC. […] Performance of the assay was monitored by the use of laboratory quality-control strains and a standard compound with a defined MIC spectrum (neomycin), in accordance with CLSI guidelines.
# C. freundii = assay: MIC broth microdilution (CLSI); assay type: cell-based; details: strain ACSP1001, MDR Clinical isolate (CDC CRE panel), CDC AR Bank 0157
# Experimental: as §1, §2
# E. cloacae = assay: MIC broth microdilution (CLSI); assay type: cell-based; details: strain AECL1089, MDR Clinical isolate (CDC CRE panel), CDC AR Bank 0154
# Experimental: as §1, §2
# E. coli = assay: MIC broth microdilution (CLSI); assay type: cell-based
# Experimental: as §1, §2
# K. aerogenes = assay: MIC broth microdilution (CLSI); assay type: cell-based; details: strain AEAE1042, MDR Clinical isolate (CDC CRE panel), CDC AR Bank 0161
# Experimental: as §1, §2
# K. pneumoniae = assay: MIC broth microdilution (CLSI); assay type: cell-based
# Experimental: as §1, §2
# P. aeruginosa = assay: MIC broth microdilution (CLSI); assay type: cell-based
# Experimental: as §1, §2
# P. mirabilis = assay: MIC broth microdilution (CLSI); assay type: cell-based; details: strain APMI1048, MDR Clinical isolate (CDC CRE panel), CDC AR Bank 0159
# Experimental: as §1, §2
# S. aureus = assay: MIC broth microdilution (CLSI); assay type: cell-based
# Experimental: as §1, §2
# S. enterica = assay: MIC broth microdilution (CLSI); assay type: cell-based; details: strain ASSE1001, MDR Clinical isolate (CDC CRE panel), CDC AR Bank 0127
# Experimental: as §1, §2
structure (smiles),measurement,setting,value
NCC[C@H](O)C(=O)N[C@@H]1C[C@H](N)[C@@H](O[C@H]2O[C@H](CN)[C@@H](O)[C@H](O)[C@H]2O)[C@H](O)[C@H]1O[C@H]1O[C@H](CO)[C@@H](O)[C@H](N)[C@H]1O [amikacin],in vivo antibacterial activity against the strain,[1],minimal activity
"NC[C@@H]1O[C@H](O[C@H]2[C@@H](O)[C@H](O[C@@H]3[C@@H](O)[C@H](N)C[C@H](N)[C@H]3O[C@H]3O[C@H](CN)[C@@H](O)[C@H](O)[C@H]3N)O[C@@H]2CO)[C@H](N)[C@@H](O)[C@@H]1O [NEO, neomycin, reference compound]",Activity (MIC),"A. baumannii; strain NABA0006, WT parent",+ (MIC threshold for positive activity (+) is ≤16 μg/mL)
same,Activity (MIC),"A. baumannii; strain NABA0007, ΔadeJK efflux",+ (MIC threshold for positive activity (+) is ≤16 μg/mL)
same,Activity (MIC),"A. baumannii; strain NABA0020, AME negative strain",+ (MIC threshold for positive activity (+) is ≤16 μg/mL)
same,Activity (MIC),"A. baumannii; strain NABA1427, MDR Clinical isolate",− (for inactive (−) is >16 μg/mL)
same,Activity (MIC),"A. baumannii; strain NABA1433, MDR Clinical isolate",− (for inactive (−) is >16 μg/mL)
same,Activity (MIC),"A. baumannii; strain NABA1434, MDR Clinical isolate",+ (MIC threshold for positive activity (+) is ≤16 μg/mL)
same,Activity (MIC),"A. baumannii; strain NABA1436, MDR Clinical isolate",− (for inactive (−) is >16 μg/mL)
same,Activity (MIC),"A. baumannii; strain NABA1437, MDR Clinical isolate",+ (MIC threshold for positive activity (+) is ≤16 μg/mL)
same,Activity (MIC),"A. baumannii; strain NABA1438, MDR Clinical isolate",− (for inactive (−) is >16 μg/mL)
same,Activity (MIC),"A. baumannii; strain NABA1439, MDR Clinical isolate",− (for inactive (−) is >16 μg/mL)
same,Activity (MIC),"A. baumannii; strain NABA1448, MDR Clinical isolate",− (for inactive (−) is >16 μg/mL)
same,Activity (MIC),"A. baumannii; strain NABA1449, MDR Clinical isolate",+ (MIC threshold for positive activity (+) is ≤16 μg/mL)
same,Activity (MIC),"A. baumannii; strain NABA1450, MDR Clinical isolate",− (for inactive (−) is >16 μg/mL)
same,Activity (MIC),C. freundii,− (for inactive (−) is >16 μg/mL)
same,Activity (MIC),E. cloacae,+ (MIC threshold for positive activity (+) is ≤16 μg/mL)
same,Activity (MIC),"E. coli; strain AECO1225, MDR Clinical isolate (CDC CRE panel), CDC AR Bank 0118",+ (MIC threshold for positive activity (+) is ≤16 μg/mL)
same,Activity (MIC),"E. coli; strain AECO1226, MDR Clinical isolate (CDC CRE panel), CDC AR Bank 0119",+ (MIC threshold for positive activity (+) is ≤16 μg/mL)
same,Activity (MIC),"E. coli; strain AECO1227, MDR Clinical isolate (CDC CRE panel), CDC AR Bank 0128",+ (MIC threshold for positive activity (+) is ≤16 μg/mL)
same,Activity (MIC),"E. coli; strain NECO0001, WT QC",+ (MIC threshold for positive activity (+) is ≤16 μg/mL)
same,Activity (MIC),"E. coli; strain NECO0002, WT",+ (MIC threshold for positive activity (+) is ≤16 μg/mL)
same,Activity (MIC),"E. coli; strain NECO0003, ΔtolC",+ (MIC threshold for positive activity (+) is ≤16 μg/mL)
same,Activity (MIC),"E. coli; strain NECO0243, empty vector",+ (MIC threshold for positive activity (+) is ≤16 μg/mL)
same,Activity (MIC),"E. coli; strain NECO0244, AAC(6')-Ib",+ (MIC threshold for positive activity (+) is ≤16 μg/mL)
same,Activity (MIC),"E. coli; strain NECO0245, ArmA",+ (MIC threshold for positive activity (+) is ≤16 μg/mL)
same,Activity (MIC),"E. coli; strain NECO0289, APH(3')-Ia",− (for inactive (−) is >16 μg/mL)
same,Activity (MIC),"E. coli; strain NECO0302, AAC(3)-IIa",+ (MIC threshold for positive activity (+) is ≤16 μg/mL)
same,Activity (MIC),"E. coli; strain NECO0350, AAC(2')-I",+ (MIC threshold for positive activity (+) is ≤16 μg/mL)
same,Activity (MIC),"E. coli; strain NECO0359, ANT(4')-Ia",+ (MIC threshold for positive activity (+) is ≤16 μg/mL)
same,Activity (MIC),K. aerogenes,+ (MIC threshold for positive activity (+) is ≤16 μg/mL)
same,Activity (MIC),"K. pneumoniae; strain AKPN1246, MDR Clinical isolate (CDC CRE panel), CDC AR Bank 0139",+ (MIC threshold for positive activity (+) is ≤16 μg/mL)
same,Activity (MIC),"K. pneumoniae; strain AKPN1250, MDR Clinical isolate (CDC CRE panel), CDC AR Bank 0143",+ (MIC threshold for positive activity (+) is ≤16 μg/mL)
same,Activity (MIC),"K. pneumoniae; strain AKPN1253, MDR Clinical isolate (CDC CRE panel), CDC AR Bank 0148",+ (MIC threshold for positive activity (+) is ≤16 μg/mL)
same,Activity (MIC),"K. pneumoniae; strain AKPN1255, MDR Clinical isolate (CDC CRE panel), CDC AR Bank 0153",+ (MIC threshold for positive activity (+) is ≤16 μg/mL)
same,Activity (MIC),"P. aeruginosa; strain NPAE0001, WT Aph(3')-IIb, QC",− (for inactive (−) is >16 μg/mL)
same,Activity (MIC),"P. aeruginosa; strain NPAE0002, WT Aph(3')-IIb",+ (MIC threshold for positive activity (+) is ≤16 μg/mL)
same,Activity (MIC),"P. aeruginosa; strain NPAE0006, Efflux KO, Aph(3')-IIb",+ (MIC threshold for positive activity (+) is ≤16 μg/mL)
same,Activity (MIC),"P. aeruginosa; strain NPAE0010, MexXY over-expressed, Aph(3')-IIb",− (for inactive (−) is >16 μg/mL)
same,Activity (MIC),"P. aeruginosa; strain NPAE0359, aph(3')-IIb KO (tetR)",− (for inactive (−) is >16 μg/mL)
same,Activity (MIC),"P. aeruginosa; strain NPAE1288, MDR Clinical isolate",− (for inactive (−) is >16 μg/mL)
same,Activity (MIC),"P. aeruginosa; strain NPAE1293, MDR Clinical isolate",− (for inactive (−) is >16 μg/mL)
same,Activity (MIC),"P. aeruginosa; strain NPAE1299, MDR Clinical isolate",− (for inactive (−) is >16 μg/mL)
same,Activity (MIC),"P. aeruginosa; strain NPAE1302, MDR Clinical isolate",− (for inactive (−) is >16 μg/mL)
same,Activity (MIC),"P. aeruginosa; strain NPAE1303, MDR Clinical isolate",− (for inactive (−) is >16 μg/mL)
same,Activity (MIC),"P. aeruginosa; strain NPAE1308, MDR Clinical isolate",− (for inactive (−) is >16 μg/mL)
same,Activity (MIC),"P. aeruginosa; strain NPAE1310, MDR Clinical isolate",+ (MIC threshold for positive activity (+) is ≤16 μg/mL)
same,Activity (MIC),"P. aeruginosa; strain NPAE1313, MDR Clinical isolate",− (for inactive (−) is >16 μg/mL)
same,Activity (MIC),"P. aeruginosa; strain NPAE1316, MDR Clinical isolate",+ (MIC threshold for positive activity (+) is ≤16 μg/mL)
same,Activity (MIC),"P. aeruginosa; strain NPAE1323, MDR Clinical isolate",− (for inactive (−) is >16 μg/mL)
same,Activity (MIC),P. mirabilis,+ (MIC threshold for positive activity (+) is ≤16 μg/mL)
same,Activity (MIC),"S. aureus; strain NSAU001, wild-type, QC, ATCC 29213",+ (MIC threshold for positive activity (+) is ≤16 μg/mL)
same,Activity (MIC),"S. aureus; strain NSAU1004, MDR Clinical isolate",+ (MIC threshold for positive activity (+) is ≤16 μg/mL)
same,Activity (MIC),"S. aureus; strain NSAU1015, MDR Clinical isolate",+ (MIC threshold for positive activity (+) is ≤16 μg/mL)
same,Activity (MIC),"S. aureus; strain NSAU1023, MDR Clinical isolate",− (for inactive (−) is >16 μg/mL)
same,Activity (MIC),"S. aureus; strain NSAU1063, MDR Clinical isolate",− (for inactive (−) is >16 μg/mL)
same,Activity (MIC),S. enterica,+ (MIC threshold for positive activity (+) is ≤16 μg/mL)
